Among the data in ChEMBL document CHEMBL1129474, “Quinazoline antifolates thymidylate synthase inhibitors: lipophilic analogues with modification to the C2-methyl substituent” (J Med Chem, 1996) are IC50 and Ratio values, retold here.

By IC50 is commonly meant the midpoint of a concentration-inhibition curve. A low value points to inhibition by little substance.

Chain of Thymidylate synthase (P07607 whole entry): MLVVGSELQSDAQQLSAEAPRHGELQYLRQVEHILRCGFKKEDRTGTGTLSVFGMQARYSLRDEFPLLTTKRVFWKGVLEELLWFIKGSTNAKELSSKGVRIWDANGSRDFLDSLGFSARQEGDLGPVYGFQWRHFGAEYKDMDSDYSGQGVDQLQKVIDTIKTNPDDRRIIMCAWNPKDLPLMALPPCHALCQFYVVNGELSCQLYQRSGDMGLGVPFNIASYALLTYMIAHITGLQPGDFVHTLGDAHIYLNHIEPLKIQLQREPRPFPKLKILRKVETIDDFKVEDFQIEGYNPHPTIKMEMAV

One assay deals with L1210. As to the kind of experiment: In vitro inhibitory activity against L1210 cell growth. The conditions noted are these: Mus musculus. It counts as functional, cell-based.
Take `C#CCN(Cc1cc2c(O)nc(CSc3ncccn3)nc2cc1C)c1ccc(C(=O)NCc2cccc([N+](=O)[O-])c2)c(F)c1`: the half-maximal inhibitory concentration (IC50) turned out to be 640 nM.

In turn, `C#CCN(Cc1ccc2nc(CO)nc(O)c2c1)c1ccc(C(=O)NCc2cccc([N+](=O)[O-])c2)cc1` returned a 50% inhibitory concentration (IC50) of 4800 nM.

As for `C#CCN(Cc1ccc2nc(CN(C)CCN(C)C)nc(O)c2c1)c1ccc(C(=O)NCc2cccc([N+](=O)[O-])c2)cc1`, the concentration for half-maximal inhibition (IC50) worked out at 5000 nM.

As for `C#CCN(Cc1ccc2nc(CC#N)nc(O)c2c1)c1ccc(C(=O)NCc2cccc([N+](=O)[O-])c2)cc1`, the 50% inhibitory concentration (IC50) is 11000 nM.

`Cc1nc2cc(C)c(CN(C)c3ccc(C(=O)NCc4cccc([N+](=O)[O-])c4)c(F)c3)cc2c(=O)[nH]1`: the half-maximal inhibitory concentration (IC50) is 76 nM.

`C#CCN(Cc1ccc2nc(CSc3nccc(O)n3)nc(O)c2c1)c1ccc(C(=O)NCc2cccc([N+](=O)[O-])c2)cc1` returned a 50% inhibitory concentration (IC50) of 12000 nM.

`C#CCN(Cc1cc2c(O)nc(CN3CCN(C)CC3)nc2cc1C)c1ccc(C(=O)NCc2cccc([N+](=O)[O-])c2)c(F)c1` returned a concentration for half-maximal inhibition (IC50) of 580 nM.

With `C#CCN(Cc1ccc2nc(C)nc(O)c2c1)c1ccc(C(=O)NC(Cc2cccc([N+](=O)[O-])c2)C(=O)O)cc1` (configuration not stated), the IC50 is 9000 nM.

`C#CCN(Cc1ccc2nc(CN3CCN(C)CC3)nc(O)c2c1)c1ccc(C(=O)NCc2cccc([N+](=O)[O-])c2)cc1` came in with an IC50 of 5300 nM.

In turn, `Cc1cc2nc(CN(C)C)nc(O)c2cc1CN(C)c1ccc(C(=O)NCc2cccc([N+](=O)[O-])c2)c(F)c1` had a 50% inhibitory concentration (IC50) of 580 nM.

`C#CCN(Cc1ccc2nc(COCCOC)nc(O)c2c1)c1ccc(C(=O)NCc2cccc([N+](=O)[O-])c2)cc1` had a 50% inhibitory concentration (IC50) of 6700 nM.

`Cc1cc2nc(CN3CCN(C)CC3)nc(O)c2cc1CN(C)c1ccc(C(=O)NC(CCC(=O)O)C(=O)O)c(F)c1` (configuration not stated) displayed an IC50 of over 20000 nM.

Consider `C#CCN(Cc1cc2c(O)nc(CN(CCO)CCO)nc2cc1C)c1ccc(C(=O)NCc2cccc([N+](=O)[O-])c2)c(F)c1`, for which the half-inhibitory concentration (IC50) turned out to be 7800 nM.

`C#CCN(Cc1cc2c(O)nc(CO)nc2cc1C)c1ccc(C(=O)NCc2cccc([N+](=O)[O-])c2)c(F)c1` showed an IC50 of 700 nM.

Consider `C#CCN(Cc1cc2c(O)nc(CN3CCOCC3)nc2cc1C)c1ccc(C(=O)NCc2cccc([N+](=O)[O-])c2)c(F)c1`, for which the half-maximal inhibitory concentration (IC50) came out at 340 nM.

In turn, `C#CCN(Cc1cc2c(O)nc(C)nc2cc1C)c1ccc(C(=O)NCc2cccc([N+](=O)[O-])c2)c(F)c1` gave a 50% inhibitory concentration (IC50) of 260 nM.

`C#CCN(Cc1ccc2nc(CSc3ncccn3)nc(O)c2c1)c1ccc(C(=O)NC(CCC(=O)O)C(=O)O)cc1` (configuration not stated) gave an IC50 of 100000 nM.

`C#CCN(Cc1ccc2nc(CN3CCOCC3)nc(O)c2c1)c1ccc(C(=O)NCc2cccc([N+](=O)[O-])c2)cc1` returned an IC50 of 1900 nM.

`C#CCN(Cc1cc2c(O)nc(CN(C)CCN(C)C)nc2cc1C)c1ccc(C(=O)NCc2cccc([N+](=O)[O-])c2)c(F)c1`: inhibition was half-maximal at 950 nM (IC50).

On to `C#CCN(Cc1ccc2nc(CN)nc(O)c2c1)c1ccc(C(=O)NCc2cccc([N+](=O)[O-])c2)cc1`, for which the IC50 is over 20000 nM.

As for `C#CCN(Cc1ccc2nc(C)nc(O)c2c1)c1ccc(C(=O)NCc2cccc([N+](=O)[O-])c2)cc1`, inhibition was half-maximal at 1400 nM (IC50).

As for `C#CCN(Cc1ccc2nc(CSc3ncccn3)nc(O)c2c1)c1ccc(C(=O)NCc2cccc([N+](=O)[O-])c2)cc1`, the IC50 came to 2000 nM.

Take `C#CCN(Cc1ccc2nc(CN(C)C)nc(O)c2c1)c1ccc(C(=O)NCc2cccc([N+](=O)[O-])c2)cc1`: it took 2700 nM to reach half-maximal inhibition (IC50).

On to `C#CCN(Cc1ccc2nc(CNS(C)(=O)=O)nc(O)c2c1)c1ccc(C(=O)NCc2cccc([N+](=O)[O-])c2)cc1`, for which the 50% inhibitory concentration (IC50) was over 20000 nM.

On to `C#CCN(Cc1ccc2nc(CCl)nc(O)c2c1)c1ccc(C(=O)NCc2cccc([N+](=O)[O-])c2)cc1`, for which the 50% inhibitory concentration (IC50) came out at 2400 nM.

`C#CCN(Cc1ccc2nc(CSc3nccc(N)n3)nc(O)c2c1)c1ccc(C(=O)NCc2cccc([N+](=O)[O-])c2)cc1` displayed an IC50 of 2200 nM.

The compound `C#CCN(Cc1ccc2nc(CN3CCC(O)C3)nc(O)c2c1)c1ccc(C(=O)NCc2cccc([N+](=O)[O-])c2)cc1` (configuration not stated) showed an IC50 of 9000 nM.

The compound `C#CCN(Cc1ccc2nc(CNC)nc(O)c2c1)c1ccc(C(=O)NCc2cccc([N+](=O)[O-])c2)cc1` registered an IC50 of 7800 nM.

With `C#CCN(Cc1ccc2nc(CSc3nc(N)cc(O)n3)nc(O)c2c1)c1ccc(C(=O)NCc2cccc([N+](=O)[O-])c2)cc1`, the half-maximal inhibitory concentration (IC50) amounted to 14000 nM.

Turning to `C#CCN(Cc1ccc2nc(C)nc(O)c2c1)c1ccc(C(=O)NC(CCC(=O)O)C(=O)O)cc1` (configuration not stated), inhibition was half-maximal at 150 nM (IC50).

For `Cc1cc2nc(CO)nc(O)c2cc1CN(C)c1ccc(C(=O)NCc2cccc([N+](=O)[O-])c2)c(F)c1`, half-maximal inhibition (IC50) was put at 700 nM.

In turn, `C#CCN(Cc1cc2c(O)nc(CN(C)C)nc2cc1C)c1ccc(C(=O)NCc2cccc([N+](=O)[O-])c2)c(F)c1` showed an IC50 of 680 nM.

Tested on in another assay: not listed separately
The experiment in a line: Relative resistant ratio of compound as L1210:1565 IC50 over L1210 IC50.
Conditions: not given
Type of assay: functional.
For the compound `C#CCN(Cc1cc2c(O)nc(CSc3ncccn3)nc2cc1C)c1ccc(C(=O)NCc2cccc([N+](=O)[O-])c2)c(F)c1`, the Ratio came to 0.65.

With `C#CCN(Cc1cc2c(O)nc(CN3CCN(C)CC3)nc2cc1C)c1ccc(C(=O)NCc2cccc([N+](=O)[O-])c2)c(F)c1`, the Ratio came out at 1.1.

For `C#CCN(Cc1cc2c(O)nc(CO)nc2cc1C)c1ccc(C(=O)NCc2cccc([N+](=O)[O-])c2)c(F)c1`, the Ratio came out at 0.17.

As for `C#CCN(Cc1cc2c(O)nc(CN3CCOCC3)nc2cc1C)c1ccc(C(=O)NCc2cccc([N+](=O)[O-])c2)c(F)c1`, the Ratio stood at 1.1.

`C#CCN(Cc1cc2c(O)nc(C)nc2cc1C)c1ccc(C(=O)NCc2cccc([N+](=O)[O-])c2)c(F)c1`: the Ratio was 1.

`C#CCN(Cc1ccc2nc(C)nc(O)c2c1)c1ccc(C(=O)NCc2cccc([N+](=O)[O-])c2)cc1`: the Ratio was found to be 0.3.

Take `C#CCN(Cc1cc2c(O)nc(CN(C)C)nc2cc1C)c1ccc(C(=O)NCc2cccc([N+](=O)[O-])c2)c(F)c1`: the Ratio was 0.76.

A further assay addresses Thymidylate synthase (Mus musculus, UniProt P07607). As to the kind of experiment: In vitro inhibitory activity against thymidylate synthase partially purified from L1210 mouse leukemia cells. Type of assay: cell-based.
Conditions: not given
Compound `C#CCN(Cc1ccc2nc(CO)nc(O)c2c1)c1ccc(C(=O)NCc2cccc([N+](=O)[O-])c2)cc1` returned an IC50 of 300 nM.

For the compound `C#CCN(Cc1ccc2nc(CN(C)CCN(C)C)nc(O)c2c1)c1ccc(C(=O)NCc2cccc([N+](=O)[O-])c2)cc1`, half-maximal inhibition (IC50) was put at 820 nM.

`C#CCN(Cc1ccc2nc(CC#N)nc(O)c2c1)c1ccc(C(=O)NCc2cccc([N+](=O)[O-])c2)cc1` yielded a half-inhibitory concentration (IC50) of 380 nM.

`Cc1nc2cc(C)c(CN(C)c3ccc(C(=O)NCc4cccc([N+](=O)[O-])c4)c(F)c3)cc2c(=O)[nH]1`: half-maximal inhibition (IC50) was put at 56 nM.

As to `C#CCN(Cc1ccc2nc(CSc3nccc(O)n3)nc(O)c2c1)c1ccc(C(=O)NCc2cccc([N+](=O)[O-])c2)cc1`, the half-inhibitory concentration (IC50) worked out at 3300 nM.

For `C#CCN(Cc1cc2c(O)nc(CN3CCN(C)CC3)nc2cc1C)c1ccc(C(=O)NCc2cccc([N+](=O)[O-])c2)c(F)c1`, the IC50 is 110 nM.

`C#CCN(Cc1ccc2nc(C)nc(O)c2c1)c1ccc(C(=O)NC(Cc2cccc([N+](=O)[O-])c2)C(=O)O)cc1` (configuration not stated) had an IC50 of 10 nM.

As for `C#CCN(Cc1ccc2nc(CN3CCN(C)CC3)nc(O)c2c1)c1ccc(C(=O)NCc2cccc([N+](=O)[O-])c2)cc1`, the IC50 was determined as 900 nM.

`C#CCN(Cc1cc2c(=O)[nH]c(CSc3ncccn3)nc2cc1C)c1ccc(C(=O)NCc2cccc([N+](=O)[O-])c2)c(F)c1` had a half-inhibitory concentration (IC50) of 110 nM.

`Cc1cc2nc(CN(C)C)nc(O)c2cc1CN(C)c1ccc(C(=O)NCc2cccc([N+](=O)[O-])c2)c(F)c1` came in with an IC50 of 84 nM.

`C#CCN(Cc1ccc2nc(COCCOC)nc(O)c2c1)c1ccc(C(=O)NCc2cccc([N+](=O)[O-])c2)cc1`: the IC50 came out at 640 nM.

`Cc1cc2nc(CN3CCN(C)CC3)nc(O)c2cc1CN(C)c1ccc(C(=O)NC(CCC(=O)O)C(=O)O)c(F)c1` (configuration not stated) registered an IC50 of 28 nM.

With `C#CCN(Cc1cc2c(O)nc(CN(CCO)CCO)nc2cc1C)c1ccc(C(=O)NCc2cccc([N+](=O)[O-])c2)c(F)c1`, it took 160 nM to reach half-maximal inhibition (IC50).

`C#CCN(Cc1cc2c(O)nc(CO)nc2cc1C)c1ccc(C(=O)NCc2cccc([N+](=O)[O-])c2)c(F)c1`: the IC50 is 72 nM.

Compound `C#CCN(Cc1cc2c(O)nc(CN3CCOCC3)nc2cc1C)c1ccc(C(=O)NCc2cccc([N+](=O)[O-])c2)c(F)c1` gave an IC50 of 100 nM.

Compound `C#CCN(Cc1ccc2nc(CN3CCOCC3)nc(O)c2c1)c1ccc(C(=O)NCc2cccc([N+](=O)[O-])c2)cc1` yielded an IC50 of 380 nM.

`C#CCN(Cc1cc2c(O)nc(CN(C)CCN(C)C)nc2cc1C)c1ccc(C(=O)NCc2cccc([N+](=O)[O-])c2)c(F)c1` came in with a half-inhibitory concentration (IC50) of 200 nM.

As for `C#CCN(Cc1ccc2nc(CN)nc(O)c2c1)c1ccc(C(=O)NCc2cccc([N+](=O)[O-])c2)cc1`, the 50% inhibitory concentration (IC50) was over 1700 nM.

For `C#CCN(Cc1ccc2nc(CSc3ncccn3)nc(O)c2c1)c1ccc(C(=O)NCc2cccc([N+](=O)[O-])c2)cc1`, the IC50 came out at 480 nM.

As to `C#CCN(Cc1ccc2nc(CN(C)C)nc(O)c2c1)c1ccc(C(=O)NCc2cccc([N+](=O)[O-])c2)cc1`, the IC50 is 620 nM.

In the case of `C#CCN(Cc1ccc2nc(CNS(C)(=O)=O)nc(O)c2c1)c1ccc(C(=O)NCc2cccc([N+](=O)[O-])c2)cc1`, the IC50 came to 180 nM.

Compound `C#CCN(Cc1ccc2nc(CCl)nc(O)c2c1)c1ccc(C(=O)NCc2cccc([N+](=O)[O-])c2)cc1` came in with an IC50 of 1210 nM.

As to `C#CCN(Cc1ccc2nc(CSc3nccc(N)n3)nc(O)c2c1)c1ccc(C(=O)NCc2cccc([N+](=O)[O-])c2)cc1`, the IC50 is 840 nM.

`C#CCN(Cc1ccc2nc(CN3CCC(O)C3)nc(O)c2c1)c1ccc(C(=O)NCc2cccc([N+](=O)[O-])c2)cc1` (configuration not stated): the IC50 stood at 600 nM.

For `C#CCN(Cc1cc2c(=O)[nH]c(CN(C)C)nc2cc1C)c1ccc(C(=O)NCc2cccc([N+](=O)[O-])c2)c(F)c1`, the IC50 is 140 nM.

Consider `C#CCN(Cc1ccc2nc(CNC)nc(O)c2c1)c1ccc(C(=O)NCc2cccc([N+](=O)[O-])c2)cc1`, for which half-maximal inhibition (IC50) was put at 4200 nM.

Regarding `C#CCN(Cc1ccc2nc(CSc3nc(N)cc(O)n3)nc(O)c2c1)c1ccc(C(=O)NCc2cccc([N+](=O)[O-])c2)cc1`, the half-maximal inhibitory concentration (IC50) is 1040 nM.

Consider `Cc1cc2nc(CO)nc(O)c2cc1CN(C)c1ccc(C(=O)NCc2cccc([N+](=O)[O-])c2)c(F)c1`, for which the midpoint of inhibition, the IC50, lay at 80 nM.
